PubChem BioAssay AID180 (DTP/NCI, 2004)
“And” between values parts separate entries of the source, which are not always exact repeats. Equal values may be shown once.

Test system: BDF1 mice, Adenocarcinoma 755 s.c., tumor weight T/C
Test: NCI In Vivo Anticancer Drug Screen. Data for tumor model Adenocarcinoma 755 (subcutaneous) in B6D2F1 (BDF1) mice
Settings: endpoint: mean tumor weight, schedule: Q01DX011 (ip), higher = larger tumour
Method in brief: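 Tumor-bearing mice receive test compound while controls get vehicle alone. Antitumor effect is scored from survival or tumor dimensions as a T/C quotient.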

[1] = dose: 25.0 mg/kg/injection, vehicle: methylcellulose (MC)
[2] = dose: 50.0 mg/kg/injection, vehicle: methylcellulose (MC)
[3] = dose: 30.0 mg/kg/injection, vehicle: carboxymethylcellulose (CMC)
[4] = dose: 120.0 mg/kg/injection, vehicle: carboxymethylcellulose (CMC)
[5] = dose: 240.0 mg/kg/injection, vehicle: carboxymethylcellulose (CMC)

[I][Hg][CH2]C1OCCOC1[CH2][Hg][I] (centres undefined)
T/C (dose: 2.5 mg/kg/injection, vehicle: carboxymethylcellulose (CMC)): 73 % of control
T/C (dose: 5.0 mg/kg/injection, vehicle: carboxymethylcellulose (CMC)): 39 % of control
T/C (dose: 10.0 mg/kg/injection, vehicle: carboxymethylcellulose (CMC)): 40 % of control
T/C (dose: 11.0 mg/kg/injection, vehicle: other): 73 % of control
T/C (dose: 16.0 mg/kg/injection, vehicle: carboxymethylcellulose (CMC)): 41 % of control
T/C (dose: 20.0 mg/kg/injection, vehicle: carboxymethylcellulose (CMC)): 30 % of control
T/C (dose: 22.0 mg/kg/injection, vehicle: other): 61 % of control
T/C (dose: 32.0 mg/kg/injection, vehicle: carboxymethylcellulose (CMC)): 6 % of control
T/C (dose: 44.0 mg/kg/injection, vehicle: other): 53 % of control
T/C (dose: 66.0 mg/kg/injection, vehicle: other): 37 % of control

CCC(C)C(N=C1N=CNC2=NC=NC12)C(=O)O (centres undefined)
T/C (dose: 12.0 mg/kg/injection, vehicle: methylcellulose (MC)): 108 % of control
T/C [1]: 106 % of control
T/C [2]: 80 % of control
T/C (dose: 100.0 mg/kg/injection, vehicle: methylcellulose (MC)): 98 % of control

Nc1ncnc2c1cnn2C1CCCCO1 (centres undefined)
T/C (dose: 1.75 mg/kg/injection, vehicle: methylcellulose (MC)): 74 % of control
T/C (dose: 3.5 mg/kg/injection, vehicle: methylcellulose (MC)): 50 % of control
T/C (dose: 7.0 mg/kg/injection, vehicle: methylcellulose (MC)): 21 % of control
T/C (dose: 14.0 mg/kg/injection, vehicle: methylcellulose (MC)): 1 % of control

CC1NC(=O)NC1CCCCCC(=O)O (centres undefined)
T/C (dose: 89.06 mg/kg/injection, vehicle: carboxymethylcellulose (CMC)): 122 % of control
T/C (dose: 125.0 mg/kg/injection, vehicle: carboxymethylcellulose (CMC)): 75 % of control
T/C (dose: 178.13 mg/kg/injection, vehicle: carboxymethylcellulose (CMC)): 83 % of control
T/C (dose: 250.0 mg/kg/injection, vehicle: carboxymethylcellulose (CMC)): 49 % of control
T/C (dose: 356.25 mg/kg/injection, vehicle: carboxymethylcellulose (CMC)): 90 % of control
T/C (dose: 500.0 mg/kg/injection, vehicle: carboxymethylcellulose (CMC)): 68 % of control
T/C (dose: 712.5 mg/kg/injection, vehicle: carboxymethylcellulose (CMC)): 47 % of control
T/C (dose: 1000.0 mg/kg/injection, vehicle: carboxymethylcellulose (CMC)): 69 % of control

O=c1[nH]cnc2c1ncn2CCO
T/C (dose: 43.75 mg/kg/injection, vehicle: methylcellulose (MC)): 40 % of control
T/C (dose: 87.5 mg/kg/injection, vehicle: methylcellulose (MC)): 100 % of control
T/C (dose: 175.0 mg/kg/injection, vehicle: methylcellulose (MC)): 123 % of control
T/C (dose: 350.0 mg/kg/injection, vehicle: methylcellulose (MC)): 99 % of control

Nc1nc(SCc2ccc([N+](=O)[O-])cc2)c2ncn(C3OC(CO)C(O)C3O)c2n1 (centres undefined)
T/C (dose: 18.75 mg/kg/injection, vehicle: methylcellulose (MC)): 23 % of control
T/C (dose: 37.5 mg/kg/injection, vehicle: methylcellulose (MC)): 20 % of control
T/C (dose: 75.0 mg/kg/injection, vehicle: methylcellulose (MC)): 8 % of control

CC(=O)OCC1OC(n2cnc3c(N)ncnc32)C(OC(C)=O)C1OC(C)=O (centres undefined)
T/C [3]: 150 % of control
T/C [4]: 113 % of control
T/C [5]: 103 % of control

CCCCn1cnc2c(SCc3ccc(F)cc3)nc(N)nc21
T/C (dose: 3.1 mg/kg/injection, vehicle: methylcellulose (MC)): 59 % of control
T/C (dose: 6.25 mg/kg/injection, vehicle: methylcellulose (MC)): 47 % of control
T/C (dose: 12.5 mg/kg/injection, vehicle: methylcellulose (MC)): 22 % of control
T/C [1]: 10 % of control and 14 % of control
T/C [2]: 2 % of control

c1nc(N2CC2)c2ncn(C3CCCCC3)c2n1
T/C (dose: 12.5 mg/kg/injection, vehicle: carboxymethylcellulose (CMC)): 36 % of control
T/C (dose: 50.0 mg/kg/injection, vehicle: carboxymethylcellulose (CMC)): 94 % of control

O=c1cc2[nH]c(O)cn2c(=O)[nH]1
T/C [3]: 95 % of control and 73 % of control
T/C [4]: 47 % of control
T/C [5]: 64 % of control

O=CNC(Cc1cccc(N(CCCl)CCCl)c1)C(=O)O (centres undefined)
T/C (dose: 0.25 mg/kg/injection, vehicle: methylcellulose (MC)): 96 % of control
T/C (dose: 0.5 mg/kg/injection, vehicle: methylcellulose (MC)): 59 % of control
T/C (dose: 1.0 mg/kg/injection, vehicle: methylcellulose (MC)): 57 % of control
T/C (dose: 1.1 mg/kg/injection, vehicle: methylcellulose (MC)): 36 % of control
T/C (dose: 2.0 mg/kg/injection, vehicle: methylcellulose (MC)): 41 % of control
T/C (dose: 2.25 mg/kg/injection, vehicle: methylcellulose (MC)): 22 % of control
T/C (dose: 4.5 mg/kg/injection, vehicle: methylcellulose (MC)): 4 % of control

O=C(O)C(=O)O.[U]
T/C (dose: 12.5 mg/kg/injection, vehicle: other): 73 % of control
T/C (dose: 12.5 mg/kg/injection, vehicle: saline): 68 % of control
T/C (dose: 25.0 mg/kg/injection, vehicle: other): 50 % of control
T/C (dose: 25.0 mg/kg/injection, vehicle: saline): 39 % of control
T/C (dose: 50.0 mg/kg/injection, vehicle: other): 49 % of control
T/C (dose: 50.0 mg/kg/injection, vehicle: saline): 36 % of control
T/C (dose: 100.0 mg/kg/injection, vehicle: saline): 25 % of control

Nc1nc(N)c(N=O)c(Nc2ccc(Br)cc2)n1
T/C (dose: 5.0 mg/kg/injection, vehicle: methylcellulose (MC)): 71 % of control
T/C (dose: 10.0 mg/kg/injection, vehicle: methylcellulose (MC)): 32 % of control
T/C (dose: 20.0 mg/kg/injection, vehicle: methylcellulose (MC)): 20 % of control and 31 % of control
T/C (dose: 22.0 mg/kg/injection, vehicle: methylcellulose (MC)): 44 % of control
T/C (dose: 40.0 mg/kg/injection, vehicle: methylcellulose (MC)): 16 % of control
T/C (dose: 44.0 mg/kg/injection, vehicle: methylcellulose (MC)): 21 % of control
T/C (dose: 88.0 mg/kg/injection, vehicle: methylcellulose (MC)): 20 % of control and 30 % of control

COc1cc(C(=O)O)nc(N)n1
T/C (dose: 15.0 mg/kg/injection, vehicle: saline): 111 % of control
T/C (dose: 125.0 mg/kg/injection, vehicle: saline): 100 % of control
T/C (dose: 250.0 mg/kg/injection, vehicle: saline): 161 % of control

CSc1nc(N)nc2c1ncn2CCCl
T/C (dose: 10.0 mg/kg/injection, vehicle: saline): 65 % of control
T/C (dose: 20.0 mg/kg/injection, vehicle: saline): 70 % of control
T/C (dose: 40.0 mg/kg/injection, vehicle: saline): 73 % of control
T/C (dose: 80.0 mg/kg/injection, vehicle: saline): 74 % of control

CCCCCCCCCCCCCCCCC(C(=O)O)C(O)(CC(=O)O)C(=O)O (centres undefined)
T/C (dose: 19.0 mg/kg/injection, vehicle: carboxymethylcellulose (CMC)): 96 % of control
T/C (dose: 37.5 mg/kg/injection, vehicle: carboxymethylcellulose (CMC)): 49 % of control
T/C (dose: 75.0 mg/kg/injection, vehicle: carboxymethylcellulose (CMC)): 59 % of control

CN1Cc2c(ccc3c2OCO3)[C@@H]2[C@H](O)Cc3cc4c(cc3[C@@H]21)OCO4
T/C (dose: 150.0 mg/kg/injection, vehicle: carboxymethylcellulose (CMC)): 167 % of control
T/C (dose: 300.0 mg/kg/injection, vehicle: carboxymethylcellulose (CMC)): 51 % of control
